The source made the active and inactive calls.
Columns and labels:
[1] = biological target: Sphingosine 1-phosphate receptor 1 (Homo sapiens, UniProt P21453); format: functional;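 note: Tango beta-arrestin reporter U2OS cells stimulated with S1P near its EC80; inhibitor potency meaning antagonism of receptor activation by the natural agonist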
[2] = non-specific 3'UTR reporter inhibition in Clone20-Shn3RL – cell-based, Renilla luciferase, cherry-picked, counter-screen for Shn3 inhibitor project, dose response (AID 624133); format: functional
[3] = alpha-synuclein stem-loop luciferase translation blockers – H4 neuroglioma cells, luminescence, confirmation (AID 1988); format: functional, cell-based
[4] = biological target: Beta-2 adrenergic receptor (Homo sapiens, UniProt P07550); test: ADRB2 activation measured by internalization – cell-based, FAP fluorogen, flow cytometry, cherry pick 1, dose response (AID 588763); format: functional
[5] = viability of HCT116 lacking mutant beta-catenin – cell-based, human colon tumor, dose response (AID 1045); format: functional;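 note: HCT116 colon tumor cells with beta catenin knocked out; cells exposed to compound for 60 hours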
[6] = biological target: Sphingosine 1-phosphate receptor 4 (Homo sapiens, UniProt O95977); test: Fluorescence dose response cell-based high throughput screening assay for antagonists of the Sphingosine 1-Phosphate Receptor 4 (S1P4). [Related pubchem assays: 1524 (Confirmation in triplicates.), 1510 (Primary screen.)]; format: functional
[7] = test system: HEK293; test: cells; format: functional, cell-based; settings: Homo sapiens
[8] = luciferase reporter signal suppression in cells – H4 neuroglioma cells, luminescence, dose response (AID 1990); format: functional, cell-based
[9] = reduction of Shn3 3'UTR-driven luciferase in osteoblasts – cell-based, Clone20 osteoblasts, firefly luciferase, cherry-picked, dose response (AID 624132); format: functional;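 note: firefly luciferase luminescence from reporter carrying the Shn3 3'UTR in osteoblasts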
[10] = test system: HEK293; test: NOD2 signaling inhibitors in MDP-stimulated cells, cell-based, uHTS, luminescence (AID 2001); format: functional; settings: Homo sapiens
[11] = Luminescence Cell-Based Dose Response HTS to Identify Inhibitors of 5'UTR Stem-Loop Driven Prion Protein mRNA Translation in H4 Neuroglioblastoma Cells. [Related pubchem assays: 1827 (Project Summary), 1813 (Primary HTS)]; format: functional
[12] = biological target: Nucleotide-binding oligomerization domain-containing protein 2 (Homo sapiens, UniProt Q9HC29); test: inhibition of NOD2-driven NF-kB reporter – cell-based, luminescence, uHTS, HEK293 (AID 1566); format: functional
[13] = test system: HEK293; test: cells; format: functional, cell-based; settings: Homo sapiens; remark: listed apart in the source
[14] = test system: INS1; test: INS-1E survival protection against cytokine death – cell-based, luminescence, retest, dose response (AID 449756); format: functional; settings: Rattus norvegicus;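 note: cell death triggered by IL-1 beta plus TNF-alpha plus IFN-gamma mixture; protective hits raise ATP signal compared with cytokine alone wells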
[15] = loss of viability in HepG2 cells – cell-based, CellTiter-Glo, cherry-picked, cytotoxicity control for Shn3 inhibitor project, dose response (AID 624134); format: functional
[16] = test system: HEK293; test: cells; format: functional, cell-based; settings: Homo sapiens; remark: listed apart in the source
[17] = reduced cellular PGC1a acetyl-lysine signal – cell-based, cherry-picked samples, dose response (AID 720514); format: functional;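 note: potency may reflect raised or lowered acetylation signal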
[18] = viability of PTEN-deleted HCT116 cells – cell-based, HCT116 PTEN knockout, dose response (AID 1047); format: functional;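 note: HCT116 colon tumor cells with PTEN knocked out; cells exposed to compound for 60 hours before readout; potency for loss of cell viability measured by luminescence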
[19] = test system: HEK293; test: inhibition of NOD1-driven NF-kB reporter – cell-based, luminescence, uHTS, primary screen (AID 1578); format: functional; settings: Homo sapiens
[20] = biological target: Phospholipase A2 (Homo sapiens, UniProt P04054); format: functional;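 note: confirmatory dose-response counterscreen on phospholipase A2, testing hits that came from an ultra-high-throughput screen for ATG4B inhibitors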
[21] = biological target: Cysteine protease ATG4B (Homo sapiens, UniProt Q9Y4P1); format: functional;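 note: Fluorescence-based dose-response confirmation assay measuring inhibition of ATG4B activity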
[22] = biological target: Nonstructural protein 1 (Influenza A virus, UniProt Q194T2); format: functional, Influenza A virus (A/California/07/2009(H1N1))
[23] = biological target: T1, Beta-adrenergic receptor kinase 1 (Homo sapiens, UniProt P25098); test: blockers of aptamer binding to GRK2 – biochemical, flow cytometry beads, FAM-aptamer, powder set 1, dose response (AID 588720)
[24] = biological target: T1, Beta-adrenergic receptor kinase 1; test: aptamer displacement from bead-bound GRK2 – biochemical, cherry pick 1, bead flow cytometry, dose response (AID 504500)
[25] = biological target: T2, Phospholipase D1 (Homo sapiens, UniProt Q13393); test: PLD1 purified enzyme concentration response. [Related pubchem assays (depositor defined):AID588854]; format: functional
T2 sequence (Q13393 whole entry): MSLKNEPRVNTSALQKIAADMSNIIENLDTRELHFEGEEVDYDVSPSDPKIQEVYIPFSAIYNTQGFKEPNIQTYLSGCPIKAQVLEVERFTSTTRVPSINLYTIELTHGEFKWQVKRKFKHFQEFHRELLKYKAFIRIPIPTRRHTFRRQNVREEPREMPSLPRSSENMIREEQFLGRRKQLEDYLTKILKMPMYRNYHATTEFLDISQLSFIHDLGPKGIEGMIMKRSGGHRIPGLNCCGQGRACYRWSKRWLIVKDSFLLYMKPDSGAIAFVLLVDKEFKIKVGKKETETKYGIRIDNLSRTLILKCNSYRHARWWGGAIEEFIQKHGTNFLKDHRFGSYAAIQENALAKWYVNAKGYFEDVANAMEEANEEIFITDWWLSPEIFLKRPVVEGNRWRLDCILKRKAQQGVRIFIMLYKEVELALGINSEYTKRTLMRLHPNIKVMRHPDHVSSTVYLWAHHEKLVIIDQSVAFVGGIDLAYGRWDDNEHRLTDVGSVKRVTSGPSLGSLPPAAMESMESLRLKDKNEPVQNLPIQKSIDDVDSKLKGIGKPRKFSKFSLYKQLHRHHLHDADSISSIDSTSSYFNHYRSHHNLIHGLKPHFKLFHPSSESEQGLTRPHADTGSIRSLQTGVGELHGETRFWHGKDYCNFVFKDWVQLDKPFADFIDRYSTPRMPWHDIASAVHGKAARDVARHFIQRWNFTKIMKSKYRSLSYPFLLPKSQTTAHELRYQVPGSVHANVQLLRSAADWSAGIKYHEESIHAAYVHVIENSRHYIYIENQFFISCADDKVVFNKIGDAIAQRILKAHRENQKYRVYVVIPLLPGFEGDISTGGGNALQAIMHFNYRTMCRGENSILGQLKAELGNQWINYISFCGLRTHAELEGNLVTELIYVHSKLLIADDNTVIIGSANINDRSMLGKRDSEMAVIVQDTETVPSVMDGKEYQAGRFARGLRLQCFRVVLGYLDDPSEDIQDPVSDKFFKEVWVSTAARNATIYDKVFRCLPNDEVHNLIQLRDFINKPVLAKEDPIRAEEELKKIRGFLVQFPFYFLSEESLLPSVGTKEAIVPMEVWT

[26] = biological target: Phospholipase D2 (Homo sapiens, UniProt O14939); test: PLD2 purified enzyme concentration response. [Related pubchem assays (depositor defined):AID588854]; format: functional
[27] = test system: HEK293; test: SAR Analysis of small molecule inhibitors of B-cell specific antigen receptor-induced NF-kB activation in a HEK-293T cell line using a luminescence assay - Set 2. [Related pubchem assays (depositor defined):AID435022, AID435025, AID489021]; format: functional, cell-based; settings: Homo sapiens
[28] = test system: Jurkat; test: SAR Analysis of small molecule inhibitors of […] specific antigen receptor-induced NF-kB activation in a Jurkat cell line using a luminescence assay - Set 3. [Related pubchem assays (depositor defined):AID435022, AID435025, AID465]; format: functional, cell-based; settings: Homo sapiens
[29] = test system: HEK293; test: HEK293T cell viability loss, resazurin readout – resazurin fluorescence, cytotoxicity control for NF-kB activator project, SAR follow-up (AID 493251); format: functional, cell-based; settings: Homo sapiens
[30] = biological target: T3, Hexokinase-1 (Homo sapiens, UniProt P19367); test: SAR analysis of small molecule inhibitors of hexokinase domain containing I (HKDC1) in the hexokinase 1 selectivity assay. [Related pubchem assays (depositor defined):AID493160, AID493190]; format: functional
T3 sequence (P19367 whole entry): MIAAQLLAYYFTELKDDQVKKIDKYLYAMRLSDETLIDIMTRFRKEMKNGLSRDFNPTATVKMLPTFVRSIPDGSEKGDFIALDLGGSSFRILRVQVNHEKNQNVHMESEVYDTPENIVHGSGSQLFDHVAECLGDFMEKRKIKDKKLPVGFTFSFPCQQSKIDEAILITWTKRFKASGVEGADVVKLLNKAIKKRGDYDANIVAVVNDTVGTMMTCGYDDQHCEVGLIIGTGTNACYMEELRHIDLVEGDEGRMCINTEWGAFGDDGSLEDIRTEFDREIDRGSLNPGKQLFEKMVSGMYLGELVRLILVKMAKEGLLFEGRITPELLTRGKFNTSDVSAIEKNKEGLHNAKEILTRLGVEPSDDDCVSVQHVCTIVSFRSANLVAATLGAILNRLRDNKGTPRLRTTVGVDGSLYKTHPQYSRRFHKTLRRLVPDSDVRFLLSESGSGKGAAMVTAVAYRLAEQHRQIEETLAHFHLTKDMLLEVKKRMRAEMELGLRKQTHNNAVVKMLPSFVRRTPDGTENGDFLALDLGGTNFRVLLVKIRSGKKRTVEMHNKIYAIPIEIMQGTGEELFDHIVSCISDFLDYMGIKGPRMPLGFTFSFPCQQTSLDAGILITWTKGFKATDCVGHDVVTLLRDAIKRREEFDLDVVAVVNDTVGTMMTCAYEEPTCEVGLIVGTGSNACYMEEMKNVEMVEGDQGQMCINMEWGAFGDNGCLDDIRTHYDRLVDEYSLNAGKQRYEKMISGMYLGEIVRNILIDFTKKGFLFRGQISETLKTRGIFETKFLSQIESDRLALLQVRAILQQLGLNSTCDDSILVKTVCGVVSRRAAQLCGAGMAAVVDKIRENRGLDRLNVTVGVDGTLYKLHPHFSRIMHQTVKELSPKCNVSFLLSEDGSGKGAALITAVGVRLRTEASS

[31] = biological target: T4, Hexokinase HKDC1 (Homo sapiens, UniProt Q2TB90); test: SAR analysis of small molecule inhibitors of hexokinase domain containing I (HKDC1). [Related pubchem assays (depositor defined):AID493160, AID493190]; format: functional
T4 sequence (Q2TB90 whole entry): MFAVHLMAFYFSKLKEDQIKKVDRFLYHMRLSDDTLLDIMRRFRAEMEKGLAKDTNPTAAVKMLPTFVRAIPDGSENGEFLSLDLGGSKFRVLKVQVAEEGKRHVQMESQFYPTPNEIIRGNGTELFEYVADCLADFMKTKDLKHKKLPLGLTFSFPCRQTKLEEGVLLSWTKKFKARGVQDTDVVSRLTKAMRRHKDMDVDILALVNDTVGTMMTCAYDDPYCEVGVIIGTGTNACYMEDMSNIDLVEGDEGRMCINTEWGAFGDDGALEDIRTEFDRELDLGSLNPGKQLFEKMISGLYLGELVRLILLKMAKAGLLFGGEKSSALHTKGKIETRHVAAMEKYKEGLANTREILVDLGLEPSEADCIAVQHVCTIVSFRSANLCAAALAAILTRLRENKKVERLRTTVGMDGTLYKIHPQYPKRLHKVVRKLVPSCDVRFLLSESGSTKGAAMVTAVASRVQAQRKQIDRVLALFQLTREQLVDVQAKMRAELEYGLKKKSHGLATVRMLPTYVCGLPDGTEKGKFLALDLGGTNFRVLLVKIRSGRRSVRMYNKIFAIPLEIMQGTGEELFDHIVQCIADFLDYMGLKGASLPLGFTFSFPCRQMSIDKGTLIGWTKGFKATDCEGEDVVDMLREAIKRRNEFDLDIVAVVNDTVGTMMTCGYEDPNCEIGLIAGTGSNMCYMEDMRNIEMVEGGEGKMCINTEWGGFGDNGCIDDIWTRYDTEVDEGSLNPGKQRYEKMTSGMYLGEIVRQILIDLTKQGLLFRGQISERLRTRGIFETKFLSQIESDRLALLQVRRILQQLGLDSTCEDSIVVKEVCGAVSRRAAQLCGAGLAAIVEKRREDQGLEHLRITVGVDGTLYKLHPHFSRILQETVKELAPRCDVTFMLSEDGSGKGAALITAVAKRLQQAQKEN

T1 sequence (P25098 whole entry): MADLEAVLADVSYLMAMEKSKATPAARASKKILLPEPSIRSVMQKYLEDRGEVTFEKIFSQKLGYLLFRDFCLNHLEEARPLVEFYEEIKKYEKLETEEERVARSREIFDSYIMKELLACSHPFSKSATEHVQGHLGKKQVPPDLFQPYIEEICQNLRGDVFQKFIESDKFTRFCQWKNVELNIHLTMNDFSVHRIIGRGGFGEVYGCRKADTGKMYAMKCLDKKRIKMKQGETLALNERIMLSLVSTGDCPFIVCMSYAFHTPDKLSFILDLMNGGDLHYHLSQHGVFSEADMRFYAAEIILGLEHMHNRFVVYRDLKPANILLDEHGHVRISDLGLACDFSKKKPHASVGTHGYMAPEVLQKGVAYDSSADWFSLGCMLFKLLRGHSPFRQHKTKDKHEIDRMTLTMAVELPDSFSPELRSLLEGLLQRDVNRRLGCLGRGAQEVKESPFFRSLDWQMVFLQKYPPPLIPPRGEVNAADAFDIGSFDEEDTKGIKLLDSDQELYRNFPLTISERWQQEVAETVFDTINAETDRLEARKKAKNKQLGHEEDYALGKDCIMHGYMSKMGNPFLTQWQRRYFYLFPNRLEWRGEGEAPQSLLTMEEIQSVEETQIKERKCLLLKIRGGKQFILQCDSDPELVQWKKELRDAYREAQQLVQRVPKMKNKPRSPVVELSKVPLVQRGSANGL
Chain of Phospholipase D2 (O14939 whole entry): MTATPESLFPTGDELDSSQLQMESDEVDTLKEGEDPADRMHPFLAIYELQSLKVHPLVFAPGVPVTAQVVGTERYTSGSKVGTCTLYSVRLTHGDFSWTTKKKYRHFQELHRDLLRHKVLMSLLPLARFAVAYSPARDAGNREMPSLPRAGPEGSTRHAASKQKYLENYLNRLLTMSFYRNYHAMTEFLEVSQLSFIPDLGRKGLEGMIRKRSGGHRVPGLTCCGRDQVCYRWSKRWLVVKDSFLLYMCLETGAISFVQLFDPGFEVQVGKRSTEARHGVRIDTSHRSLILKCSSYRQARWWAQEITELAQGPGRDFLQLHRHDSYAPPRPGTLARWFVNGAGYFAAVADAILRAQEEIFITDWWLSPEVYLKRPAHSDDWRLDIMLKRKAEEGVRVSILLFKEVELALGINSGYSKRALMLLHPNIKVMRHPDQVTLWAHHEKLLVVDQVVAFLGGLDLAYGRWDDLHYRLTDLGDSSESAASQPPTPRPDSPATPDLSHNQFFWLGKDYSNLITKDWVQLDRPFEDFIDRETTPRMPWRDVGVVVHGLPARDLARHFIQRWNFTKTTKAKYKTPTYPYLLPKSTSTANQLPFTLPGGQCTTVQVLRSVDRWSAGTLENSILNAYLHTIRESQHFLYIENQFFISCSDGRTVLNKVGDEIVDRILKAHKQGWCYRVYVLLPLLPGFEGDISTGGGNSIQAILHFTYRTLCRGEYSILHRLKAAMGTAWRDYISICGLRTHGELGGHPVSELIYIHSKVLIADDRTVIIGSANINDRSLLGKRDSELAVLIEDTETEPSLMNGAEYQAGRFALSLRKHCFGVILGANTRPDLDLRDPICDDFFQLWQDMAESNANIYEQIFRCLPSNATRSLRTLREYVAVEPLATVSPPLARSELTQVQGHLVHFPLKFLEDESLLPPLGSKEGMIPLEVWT
Chain of Cysteine protease ATG4B (Q9Y4P1 whole entry): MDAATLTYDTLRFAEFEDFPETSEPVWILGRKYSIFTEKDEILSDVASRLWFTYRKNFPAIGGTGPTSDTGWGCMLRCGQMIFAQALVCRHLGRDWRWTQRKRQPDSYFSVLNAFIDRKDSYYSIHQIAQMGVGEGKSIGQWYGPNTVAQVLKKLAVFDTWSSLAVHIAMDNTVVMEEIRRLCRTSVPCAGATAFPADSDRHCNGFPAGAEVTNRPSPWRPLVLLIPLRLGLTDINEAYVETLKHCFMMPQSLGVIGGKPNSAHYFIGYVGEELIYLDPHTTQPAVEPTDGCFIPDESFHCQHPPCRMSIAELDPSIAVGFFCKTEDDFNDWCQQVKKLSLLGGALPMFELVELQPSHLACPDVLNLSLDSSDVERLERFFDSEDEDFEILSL
Chain of Nucleotide-binding oligomerization domain-containing protein 2 (Q9HC29 whole entry, the tested form may be a part): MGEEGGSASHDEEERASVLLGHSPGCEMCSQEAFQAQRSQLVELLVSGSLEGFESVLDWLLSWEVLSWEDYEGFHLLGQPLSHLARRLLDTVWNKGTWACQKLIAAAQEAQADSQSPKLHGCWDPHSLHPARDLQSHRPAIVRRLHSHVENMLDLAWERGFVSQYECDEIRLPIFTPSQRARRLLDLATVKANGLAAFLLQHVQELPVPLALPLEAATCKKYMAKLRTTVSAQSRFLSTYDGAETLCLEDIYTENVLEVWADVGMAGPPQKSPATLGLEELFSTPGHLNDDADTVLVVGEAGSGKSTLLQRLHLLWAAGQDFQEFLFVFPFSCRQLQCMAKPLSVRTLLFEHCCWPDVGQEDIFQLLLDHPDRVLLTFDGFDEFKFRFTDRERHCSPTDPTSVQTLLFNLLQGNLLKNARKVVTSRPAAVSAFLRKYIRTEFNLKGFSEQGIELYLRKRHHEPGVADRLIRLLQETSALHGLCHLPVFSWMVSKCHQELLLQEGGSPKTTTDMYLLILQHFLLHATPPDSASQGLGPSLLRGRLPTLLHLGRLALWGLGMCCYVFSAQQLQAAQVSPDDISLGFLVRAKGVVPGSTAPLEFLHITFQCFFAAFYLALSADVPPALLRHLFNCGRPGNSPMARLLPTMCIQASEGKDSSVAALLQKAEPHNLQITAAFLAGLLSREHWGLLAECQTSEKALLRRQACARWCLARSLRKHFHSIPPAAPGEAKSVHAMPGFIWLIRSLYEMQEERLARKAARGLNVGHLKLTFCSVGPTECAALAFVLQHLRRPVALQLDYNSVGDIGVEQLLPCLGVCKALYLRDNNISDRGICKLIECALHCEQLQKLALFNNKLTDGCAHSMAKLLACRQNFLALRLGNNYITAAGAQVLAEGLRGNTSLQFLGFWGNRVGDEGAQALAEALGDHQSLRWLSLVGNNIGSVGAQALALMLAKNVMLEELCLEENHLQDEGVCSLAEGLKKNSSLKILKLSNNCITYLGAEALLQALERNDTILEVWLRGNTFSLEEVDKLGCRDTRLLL
Chain of Phospholipase A2 (P04054 whole entry): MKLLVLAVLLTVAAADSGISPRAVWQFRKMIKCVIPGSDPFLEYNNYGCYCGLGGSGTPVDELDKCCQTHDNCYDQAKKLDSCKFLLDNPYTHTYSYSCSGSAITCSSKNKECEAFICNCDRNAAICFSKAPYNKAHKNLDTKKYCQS
Chain of Beta-2 adrenergic receptor (P07550 whole entry): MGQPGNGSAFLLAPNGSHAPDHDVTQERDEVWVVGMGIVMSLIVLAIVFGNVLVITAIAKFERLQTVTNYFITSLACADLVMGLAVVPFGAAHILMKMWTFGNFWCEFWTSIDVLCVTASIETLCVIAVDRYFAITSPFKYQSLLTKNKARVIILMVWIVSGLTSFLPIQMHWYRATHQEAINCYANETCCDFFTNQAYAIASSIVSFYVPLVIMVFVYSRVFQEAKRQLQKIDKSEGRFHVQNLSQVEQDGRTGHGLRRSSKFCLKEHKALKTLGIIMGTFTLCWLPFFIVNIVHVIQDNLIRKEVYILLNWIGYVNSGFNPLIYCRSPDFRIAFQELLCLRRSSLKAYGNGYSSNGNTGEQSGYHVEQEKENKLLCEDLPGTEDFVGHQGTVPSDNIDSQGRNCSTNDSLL
Chain of Nonstructural protein 1 (Q194T2 whole entry): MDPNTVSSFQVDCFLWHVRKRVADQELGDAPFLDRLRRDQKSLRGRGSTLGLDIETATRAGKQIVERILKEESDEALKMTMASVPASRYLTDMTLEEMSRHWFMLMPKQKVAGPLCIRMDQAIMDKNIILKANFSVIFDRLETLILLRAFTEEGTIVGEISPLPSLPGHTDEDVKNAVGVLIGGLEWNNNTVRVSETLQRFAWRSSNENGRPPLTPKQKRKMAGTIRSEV
Chain of Sphingosine 1-phosphate receptor 1 (P21453 whole entry): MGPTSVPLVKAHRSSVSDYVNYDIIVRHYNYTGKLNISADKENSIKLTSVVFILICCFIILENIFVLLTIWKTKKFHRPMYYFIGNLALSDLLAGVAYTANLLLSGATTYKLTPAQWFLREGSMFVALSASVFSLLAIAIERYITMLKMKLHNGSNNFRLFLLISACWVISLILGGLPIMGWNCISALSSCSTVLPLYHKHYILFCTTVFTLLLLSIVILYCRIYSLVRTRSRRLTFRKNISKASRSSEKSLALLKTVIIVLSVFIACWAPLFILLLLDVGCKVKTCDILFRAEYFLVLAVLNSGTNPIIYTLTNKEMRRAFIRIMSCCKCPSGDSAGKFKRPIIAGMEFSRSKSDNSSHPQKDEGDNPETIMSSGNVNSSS
Chain of Sphingosine 1-phosphate receptor 4 (O95977 whole entry): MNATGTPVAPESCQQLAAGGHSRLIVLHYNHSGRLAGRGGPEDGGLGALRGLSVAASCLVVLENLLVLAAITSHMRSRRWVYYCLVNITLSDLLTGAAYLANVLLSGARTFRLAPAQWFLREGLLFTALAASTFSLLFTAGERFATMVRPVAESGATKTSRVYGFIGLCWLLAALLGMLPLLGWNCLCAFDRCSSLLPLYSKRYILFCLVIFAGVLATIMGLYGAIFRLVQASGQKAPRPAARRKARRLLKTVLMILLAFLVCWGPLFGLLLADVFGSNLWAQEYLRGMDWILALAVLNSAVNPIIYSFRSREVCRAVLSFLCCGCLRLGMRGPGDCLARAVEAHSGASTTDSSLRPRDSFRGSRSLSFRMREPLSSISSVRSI

Cc1ccc(-c2nc(NC(=O)c3nn(C)cc3[N+](=O)[O-])sc2C)cc1
IC50 [1]: 21 µM (not active) | AC50 [2]: 6.15 µM (active) | EC50 [3]: 1.84 µM (active) | EC50 [4]: 8.09 µM (active) | EC50 [5]: 0.321 µM (active) | IC50 [6]: 1.07 µM (active) | IC50 [7]: 2.48 µM (active) | EC50 [8]: 5.46 µM (active) | AC50 [9]: 1.3 µM (active) | IC50 [10]: 2.14 µM (active) | EC50 [11]: 5.05 µM (active) | EC50 [12]: 3 µM (active) | IC50 [13]: 14.7 µM (active) | AC50 [14]: 5.22 µM (active) | AC50 [15]: 26.8 µM (active) | IC50 [16]: > 20 µM (inactive) | AC50 [17]: 3.81 µM (active) | EC50 [18]: 0.4 µM (active) | EC50 [19]: 5.58 µM (active)

COCCNC(=O)/C(C#N)=C/c1c(N2CCN(c3ccccc3)CC2)nc2c(C)cccn2c1=O
IC50 [20]: 9.79 µM (active) | IC50 [21]: 14.7 µM (active) | IC50 [22]: > 100 µM (active)

COc1ccc(CNC(=O)CCS(=O)(=O)c2ccc(Br)cc2)cc1
EC50 [23]: 3 µM (active) | EC50 [24]: 0.7 µM (active)

COc1cc(C(=O)NCCN2CCC3(CC2)C(=O)NCN3c2ccccc2)ccc1N
IC50 [25]: 1.08 µM (active) | IC50 [26]: 0.17 µM (active)

CCOc1ccc(-c2nc(CSCC(=O)NCCC3=CCCCC3)c(C)o2)cc1
IC50 [27]: 17.6 µM (active) | IC50 [28]: 9.13 µM (active) | IC50 [29]: 42.4 µM (inactive)

COc1cc2c(cc1OC)-c1cc(NCc3ccc(F)cc3)nc(=O)n1CC2
IC50 [30]: > 80 µM (inactive) | IC50 [31]: > 80 µM (inactive)
